Experimental data: patent US4450272A, “Antiatherosclerotic 1-piperazine-thicarboxamides” (American Cyanamid Company, priority 1982, dated 1984)

Columns and labels:
[1] = test system: serum lipids (sterol, triglycerides); test: Ability to lower lipid levels in mammals (serum cholesterol and triglycerides in rats, 5 days in diet); type: in vivo, male rats COBS, CD, SD strain; conditions: male rats, oral, 0.1% compound in diet, vs control; for inhibition in vivo at 0.1 % in diet: Rattus norvegicus, 120 h, read-out: % Lowering of Serum Triglycerides
Protocol: The compounds were also tested for their ability to lower lipid levels in mammals. The compounds were administered orally admixed with diet to groups of four male rats COBS, CD, SD strain from Charles River Breeding Laboratories, Inc., Wilmington, Mass. A control group of eight rats was maintained on the diet alone; test groups were maintained on the diet plus the indicated percentage of test compound by weight. After 5 days treatment, serum cholesterol and triglyceride concentrations were determined by direct enzymatic procedures using a Centrifichem® System 400 autoanalyzer (Union Carbide Co.). Cholesterol concentrations were determined by the combined cholesterol esterase-cholesterol oxidase procedure of Roelschlau et. al., Zeit. Klin. Chem. Klin. Biochem., 12, 226 (1974). Triglycerides were determined by the combined method of lipase catalyzed hydrolysis of triglycerides to glycerol and free fatty acids [Bucolo, G. and David, H., Clin. Chem., 19, 476 (1973) and Wahlefeld, A. W., in "Methods of Enzymatic Analysis", Vol. 4, Bergmeyer, H. U., Editor, Academic Press, New York, N.Y. (1974), pp. 1831-1835] and the enzymatic oxidation of the glycerol which leads to the production of colored formazan [Stavropoulos, W. S. and Crouch, R. D., Clin. Chem., 20, No. 7, 857 (1974)]. […] Compounds which produce statistically significant lowering of either sterol or triglycerides are considered to be active.

[2] = target: T1, fatty acyl CoA:cholesterol acyl transferase (ACAT) (Rattus norvegicus, UniProt O70536); test: Inhibition of ACAT (fatty acyl CoA:cholesterol acyl transferase) in rat adrenal supernatant; type: biochemical; conditions: rat adrenals, final concentration 5.2 μg./ml., pH 7.4, 37° C.
T1 construct: The supernatant, containing the microsomal fraction, served as the source of the cholesterol-esterifying enzyme; from tissue; host or cells: rat adrenals, 1000 x g supernatant containing the microsomal fraction
T1 sequence (O70536 1-545): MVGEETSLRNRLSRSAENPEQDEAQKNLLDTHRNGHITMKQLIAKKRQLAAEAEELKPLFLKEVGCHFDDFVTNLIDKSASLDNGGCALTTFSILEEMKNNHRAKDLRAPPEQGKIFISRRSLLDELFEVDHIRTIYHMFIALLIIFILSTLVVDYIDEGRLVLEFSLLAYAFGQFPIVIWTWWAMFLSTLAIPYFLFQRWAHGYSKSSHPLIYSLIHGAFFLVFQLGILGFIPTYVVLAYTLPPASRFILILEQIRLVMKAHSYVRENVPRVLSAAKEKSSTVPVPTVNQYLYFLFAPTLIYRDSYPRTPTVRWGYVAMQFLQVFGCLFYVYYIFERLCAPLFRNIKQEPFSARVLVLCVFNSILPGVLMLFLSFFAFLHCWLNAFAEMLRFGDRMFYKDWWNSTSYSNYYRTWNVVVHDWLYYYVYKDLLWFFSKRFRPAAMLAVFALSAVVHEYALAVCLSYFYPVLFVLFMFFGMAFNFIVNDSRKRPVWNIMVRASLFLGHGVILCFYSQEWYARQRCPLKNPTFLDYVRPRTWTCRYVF
Protocol: Compounds were tested for their ability to inhibit ACAT according to the following procedure:
Rat adrenals were homogenized in 0.2 M monobasic potassium phosphate buffer, pH 7.4, and centrifuged at 1000 times gravity for 15 minutes at 5° C. The supernatant, containing the microsomal fraction, served as the source of the cholesterol-esterifying enzyme, fatty acyl CoA:cholesterol acyl transferase (ACAT). A mixture comprising 50 parts of adrenal supernatant, 10 parts of albumin (BSA) (50 mg./ml.), 3 parts of test compound (final concentration 5.2 μg./ml.) and 500 parts of buffer was preincubated at 37° C. for 10 minutes. After treatment with 20 parts of oleoyl CoA (^14 C -0.4 μCi) the mixture was incubated at 37° C. for 10 minutes. A control mixture, omitting the test compound, was prepared and treated in the same manner. The lipids from the incubation mixture were extracted into an organic solvent and separated by thin-layer chromatography. The cholesterol ester fraction was counted in a scintillation counter. This procedure is a modification of that described by Hashimoto, et. al., Life Scie., 12 (Part II), 1-12 (1973).
Compounds which produce a statistically significant inhibition of the ACAT enzyme are considered to be active.

[3] = test system: aortic sterol content; test: Ability to decrease aortic sterol content without effecting serum sterol, cholesterol-fed cockerels; type: in vivo, Day-old-cockerels; design: key: Active: Compounds which produce statistically significant decreases in the aortic sterol content without having an effect on serum sterol are considered to be active; conditions: 525 mg. test compound and 20 g. cholesterol per kg. of diet, 14 days
Protocol: The compounds were further tested for their ability to decrease aortic sterol content without effecting serum sterol.
Day-old-cockerels were placed on diets consisting of pullet starter mash supplemented with either 20 g. cholesterol (control group) or 20 g. cholesterol and 525 mg. test compound (drug-treated group) per kg. of diet.
For the control diet 20 g. of cholesterol is dissolved in 200 ml. of chloroform, mixed into one kg. of pullet starter mash and then the chloroform is removed by evaporation.
For the drug-treatment group 525 mg. of the test compound is dissolved in 100 ml. of chloroform, mixed into a diet prepared as described above and then the chloroform is evaporated.
The cockerels were housed three per cage and given water and their respective diet ad libitum for 14 days. Blood was collected by cardiac puncture and the serum was saponified [Trinder, P., Analyst, 77, 321 (1952)] and extracted and the cholesterol content determined [Zlatkis, A. et. al., J. Lab. Clin. Med., 41, 486 (1953)]. The aortae were removed, cleaned of adventitial tissue and the sterol content determined according to the above procedures. Compounds which produce statistically significant decreases in the aortic sterol content without having an effect on serum sterol are considered to be active.

Row | Structure (SMILES) | inhibition in vivo at 0.1 % in diet [1] [%] | inhibition at 5.2 µg/mL [2] [%] | Result (decrease of aortic sterol content without effect on serum sterol) [3] | % Lowering of Serum Sterol [1] [%]
1 | Fc1ccccc1NC(=S)N1CCN(c2cnccn2)CC1 [2'-Fluoro-4-(2-pyrazinyl)-1-piperazinethiocarboxanilide] | 21 | – | – | –
2 | S=C(Nc1ccc(Cl)cc1)N1CCN(c2cnccn2)CC1 [4'-Chloro-4-(2-pyrazinyl)-1-piperazinethiocarboxanilide] | 49 | 31 | – | –
3 | CC(C)c1ccc(NC(=S)N2CCN(c3cnccn3)CC2)cc1 [4'-Isopropyl-4-(2-pyrazinyl)-1-piperazinethiocarboxanilide] | – | 56 | – | –
4 | S=C(Nc1ccccc1)N1CCN(c2cnccn2)CC1 [N--Phenyl-4-(2-pyrazinyl)-1-piperazinethiocarboxamide] | 52 | – | Active | –
5 | S=C(Nc1c(Cl)cccc1Cl)N1CCN(c2cnccn2)CC1 [2',6'-Dichloro-4-(2-pyrazinyl)-1-piperazinethiocarboxanilide] | 37 | – | – | –
6 | CCNC(=S)N1CCN(c2cncc(OC)n2)CC1 [N-Ethyl-4-(6-methoxy-2-pyrazinyl)-1-piperazinethiocarboxamide] | 38 | 40 | – | –
7 | CCNC(=S)N1CCN(c2ccc3ccccc3n2)CC1 [N-Ethyl-4-(2-quinolyl)-1-piperazinethiocarboxamide] | – | 48 | – | –
8 | CNC(=S)N1CCN(c2cnccn2)CC1 [N-Methyl-4-(2-pyrazinyl)-1-piperazinethiocarboxamide] | 31 | – | Active | –
9 | S=C(NCCc1ccccc1)N1CCN(c2cnccn2)CC1 [N-Phenethyl-4-(2-pyrazinyl)-1-piperazinethiocarboxamide] | – | 33 | – | 16
10 | S=C(Nc1ccccc1Cl)N1CCN(c2cnccn2)CC1 [2'-Chloro-4-(2-pyrazinyl)-1-piperazinethiocarboxanilide] | 49 | – | – | –
11 | CCNC(=S)N1CCN(c2cnccn2)CC1 [N--Ethyl-4-(2-pyrazinyl)-1-piperazinethiocarboxamide] | – | – | Active | –
12 | S=C(NC1CCCCC1)N1CCN(c2cnccn2)CC1 [N-Cyclohexyl-4-(2-pyrazinyl)-1-piperazinethiocarboxamide] | 43 | 31 | – | –
13 | N#Cc1ccc(NC(=S)N2CCN(c3cnccn3)CC2)cc1 [4'-Cyano-4-(2-pyrazinyl)-1-piperazinethiocarboxanilide] | 55 | – | Active | –
14 | Fc1ccc(NC(=S)N2CCN(c3cnccn3)CC2)cc1 [4'-Fluoro-4-(2-pyrazinyl)-1-piperazinethiocarboxanilide] | 37 | – | – | –
